Assay results: patent publication US9226919B2, “Methods for dosing an orally active 1,2,4-oxadiazole” (PTC Therapeutics, Inc., priority 2006, dated 2016)
Values joined by “and” are separate entries in the source; they are usually repeats but may differ in a detail not shown here. Identical values can stand only once.

Tests used:
cough = test: Quantitative cough assessment (LifeShirt), mean cough frequency over 24 hours; format: in vivo, human; conditions: FIG. 2; initial improvement, temporary increase, then overall improvement
Experimental: FIG. 2 provides the effect on mean cough frequency over 24 hours by the administration of 3-[5-(2-fluoro-phenyl)-[1,2,4]oxadiazol-3-yl]-benzoic acid to a subject.
The VivoMetrics, Inc. LifeShirt® incorporates motion-sensing transducers, electrodes, a throat microphone, calibration bag, and a 3-axis accelerometer into a lightweight, washable vest that is available for patients≧5 years of age (see LifeShirt® Monitoring System QuickStart Guide, incorporated by reference herein in its entirety). Using integrated input from the motion sensors and microphone, the frequency and intensity of cough can be measured. […]
The device was used to obtain the data set forth in FIG. 2 and will be used to offer substantial supplementary data regarding the clinical benefits of 3-[5-(2-fluoro-phenyl)-[1,2,4]oxadiazol-3-yl]-benzoic acid during Phase 3 testing in CF. […] Without being limited by theory, based on the hypothesis that 3-[5-(2-fluoro-phenyl)-[1,2,4]oxadiazol-3-yl]-benzoic acid-mediated induction of CFTR function would reduce airway obstruction and inflammation, a decrease in cough frequency could serve as a symptomatic integration of these pharmacological effects and might offer a more accurate and quantitative assessment than verbal patient reporting.

dystrophin = test: Dystrophin expression in EDB muscle biopsy by immunofluorescence, Phase 2 DMD study; format: in vivo, human; conditions: for In Vivo Expression Response (dystrophin): individual DMD patients, 28 days
Experimental: Biopsy of the EDB muscle and overlying skin from one foot is performed under local anesthesia and conscious sedation (in some cases, general anesthesia may be required) prior to treatment, and from the other foot on the last day of treatment. The biopsy procedure is performed using standardized techniques (Stedman, 2000, Human Gene Therapy 11:777-90). The entire muscle belly (whenever possible) is removed in the procedure. At the time of collection of the biopsy prior to treatment, the muscle specimen is divided into at least 3 fragments and the biopsy specimen collected on the last day of treatment is divided into at least 2 fragments. The biopsy specimen is placed on a telfa gauze sponge moistened with Ringer's saline. The biopsy specimen is viewed at low power under a stereo dissection microscope to establish fiber orientation. The muscle is then transected using a sharp scalpel in a cross sectional fashion (perpendicular to the orientation of the fibers) whenever possible and allowed to rest for 2 minutes to allow for the cessation of spasm. The sample is then frozen in liquid nitrogen cooled isopentane, transferred to a liquid nitrogen reservoir and held 1 inch above the liquid/vapor interface for 2 minutes of slow cooling and isopentane evaporation before immersion in the liquid nitrogen, and wrapped into precooled (in liquid nitrogen and stored on dry ice) foil labeled with the study number, site number, patient number, date, patient initials, and foot side (right foot or left foot).
All sample containers are clearly labeled in a fashion that identifies the subject and the collection date. Labels are fixed to the sample containers in a manner that prevents the label from becoming detached. Samples are shipped for analysis/culture/central review immediately after the procedure is performed. For detection of dystrophin, 3 commercially available antibodies that recognize the C-terminus, the N-terminus, and the rod domain of the protein are employed. For detection of the sarcoglycan and dystroglycan complex, commercially available antibodies against α-, β-, γ-, and δ-sarcoglycan, and β-dystroglycan are used when possible. Epifluorescence microscopy is used in the analysis; images are captured by CCD camera, after normalization of the fluorescence intensity against a normal muscle specimen. Images are stored digitally and preserved for future review, and final evaluation at the completion of the study. Tissues are also processed for detection of dystrophin, the sarcoglycans, and β-dystroglycan by Western blotting using the same antibodies. Microscopic images are captured and preserved for future review, and for final evaluation at the completion of the study. Remaining muscle tissue samples are preserved for confirmatory assays of mRNA and proteins involved in DMD. […]

O=C(O)c1cccc(-c2noc(-c3ccccc3F)n2)c1 [3-[5-(2-fluoro-phenyl)-[1,2,4]oxadiazol-3-yl]-benzoic acid]
Mean cough frequency over 24 hours (cough): overall improvement in mean cough frequency
In Vivo Expression Response (dystrophin) (dystrophin; High Dose: 20, 20, 40 mg/kg): Yes (6×) and No (6×)
In Vivo Expression Response (dystrophin) (dystrophin; Low Dose: 4, 4, 8 mg/kg): Yes (4×) and No (2×)
In Vivo Expression Response (dystrophin) (dystrophin; Middle Dose: 10, 10, 20 mg/kg): Yes (10×) and No (10×)
Extensor digitorum brevis muscle membrane dystrophin on staining for the C-terminal domain (dystrophin; some patients at both dose levels, day 28 relative to baseline): Partial restoration or increase
